Where a SMILES comes first, the peptide text is derived from it.
Assays:
[1] = tested on: 5×FAD mouse; experiment: Activity Chamber assay in 5×FAD Alzheimer's disease mouse model; assay type: in vivo; conditions: 5×FAD mice, daily IP for 5 days, FIGS. 11A-11H
Text: The 5×FAD mouse, a well-accepted transgenic model of Alzheimer's disease, was used to test the therapeutic efficacy of MKI-TAT in vivo. The 5×FAD model mouse overexpresses APP with the K670N/M671L (Swedish mutation), I716V (Florida mutation), and V717I (London mutation), and PS1 with the M146L and L286V mutations. […] These defects were rescued by the daily delivery of MKI-TAT through IP for 5 days. At the end of the 5 day treatment, the wild type animals treated with vehicle, and 5×FAD mice treated with vehicle or MKI-TAT were subjected to the Activity Chamber assay. Total ambulatory count (FIG. 11A), total stereotypic count (FIG. 11B), total vertical count (FIG. 11C), total session time (FIG. 11D), total ambulatory time (FIG. 11E), total stereotypic time (FIG. 11F), total vertical time (FIG. 11G), and total zone entry (FIG. 11H) were evaluated.
Activity Chamber assays were performed to evaluate the effects of MKI-TAT in rescuing motor behavioral defects in an Alzheimer's disease mouse model. The 5×FAD mouse, a well-accepted transgenic model of Alzheimer's disease, was used to test the therapeutic efficacy of MKI-TAT in vivo. The 5×FAD model mouse overexpresses APP with the K670N/M671L (Swedish mutation), I716V (Florida mutation), and V717I (London mutation), and PS1 with the M146L and L286V mutations. […]

[2] = tested on: MARK4-mediated tau phosphorylation; experiment: Tau phosphorylation in brain of mouse PS19 transgenic tauopathy model (P301S mutant human tau); assay type: in vivo; conditions: PS19 mice, IP 40 mg/kg/day for 5 days, FIG. 10
Description: Three PS19 transgenic mice (ID number: 9, 10, 11) were subjected to daily IP injection with MKI-TAT peptide (dissolved in 100% DMSO, 40 mg/kg/day) for 5 days. At the end of 5-day injection, the animals were anesthetized with 4% isoflurine and decapitated. The brain tissues were collected immediately, flash-frozen in liquid nitrogen and stored at −80° C. For analysis of effect of MKI-TAT on tau phosphorylation, brain tissues were homogenized in lysis buffer, separated on SDS-PAGE, and probed with the indicated antibodies.
Three PS19 transgenic mice (ID number: 9, 10, 11) were subjected to daily intraperitoneal injection with MKI-TAT peptide (dissolved in 100% DMSO, 40 mg/kg/day) for 5 days. At the end of the 5-day injection period, the animals were anesthetized with 4% isoflurine and decapitated. The brain tissues were collected immediately, flash-frozen in liquid nitrogen, and stored at −80° C. For analysis of the effects of MKI-TAT on tau phosphorylation, brain tissues were homogenized in lysis buffer, separated on SDS-PAGE, and probed with antibodies against pS262-tau, PHF-1, tau, and actin.

[3] = molecular target: T1, Human MARK4 (Homo sapiens, UniProt Q96L34); experiment: In vitro kinase assay of MARK4 phosphorylating tau (Western blot); assay type: biochemical; conditions: human MARK4 and tau affinity-purified from HEK293 cells, FIG. 7
T1 construct: made in house; host or cells: HEK293 cells
T1 sequence (Q96L34 1-752): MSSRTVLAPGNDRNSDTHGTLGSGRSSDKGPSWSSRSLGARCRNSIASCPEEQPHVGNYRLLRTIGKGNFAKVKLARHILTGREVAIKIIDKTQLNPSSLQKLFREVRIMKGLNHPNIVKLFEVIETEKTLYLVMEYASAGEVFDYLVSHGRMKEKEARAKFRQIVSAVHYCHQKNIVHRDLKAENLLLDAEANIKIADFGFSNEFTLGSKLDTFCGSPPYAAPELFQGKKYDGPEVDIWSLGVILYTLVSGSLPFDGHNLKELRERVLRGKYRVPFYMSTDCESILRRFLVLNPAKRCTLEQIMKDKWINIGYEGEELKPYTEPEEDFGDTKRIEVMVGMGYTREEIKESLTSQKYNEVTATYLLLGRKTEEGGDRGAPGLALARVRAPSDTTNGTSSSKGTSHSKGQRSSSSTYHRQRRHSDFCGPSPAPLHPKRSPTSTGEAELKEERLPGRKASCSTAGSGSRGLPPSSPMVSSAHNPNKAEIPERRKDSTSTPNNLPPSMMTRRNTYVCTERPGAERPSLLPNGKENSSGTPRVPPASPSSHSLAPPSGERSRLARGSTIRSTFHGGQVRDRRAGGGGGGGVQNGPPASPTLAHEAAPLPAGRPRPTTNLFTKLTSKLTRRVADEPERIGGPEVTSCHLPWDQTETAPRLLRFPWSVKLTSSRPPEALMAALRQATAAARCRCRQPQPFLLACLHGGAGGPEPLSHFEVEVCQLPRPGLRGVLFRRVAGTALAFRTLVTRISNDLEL
Text: Both human MARK4 and tau proteins were expressed in HEK293 cells and affinity-purified by immunoprecipitation. After in vitro kinase reaction in the presence or absence of the peptides, the reaction mixtures were separated on SDS-PAGE to separate the proteins, and the levels of total tau and phospho-tau generated by MARK4 were detected by Western blot analysis. The TAT peptide was used as a negative control. Note the inhibition of MARK4-mediated tau phosphorylation by both TAT-MKI and MKI-TAT.
We next tested the ability of the TAT-MKI and MKI-TAT fusions to inhibit the activity of MARK4 kinase in phosphorylating the tau protein (FIG. 7). Human MARK4 and tau proteins were expressed in HEK293 cells and affinity-purified by immunoprecipitation. In vitro kinase reactions were performed in the presence or absence of the TAT-MKI and MKI-TAT fusion peptides and the levels of total tau and phospho-tau generated by MARK4 were detected by Western blot analysis. The TAT peptide was used as a negative control. Both the TAT-MKI and MKI-TAT fusion peptides inhibited MARK4-mediated tau phosphorylation in vitro.

**Q.** `CC(=O)NCC(=O)N[C@@H](Cc1ccccc1)C(=O)N1CCC[C@H]1C(=O)N[C@@H](CC(C)C)C(=O)N[C@@H](CCCCN)C(=O)N[C@@H](CCCNC(=N)N)C(=O)N[C@@H](Cc1c[nH]cn1)C(=O)N[C@@H](CC(=O)O)C(=O)NCC(=O)N[C@H](C(=O)N[C@@H](CC(=O)O)C(=O)N[C@@H](CC(=O)O)C(=O)N[C@@H](CC(C)C)C(=O)N[C@@H](CO)C(=O)N[C@@H](CCCCN)C(=O)N[C@H](C(=O)NCC(=O)NCC(=O)N[C@@H](Cc1ccc(O)cc1)C(=O)NCC(=O)N[C@@H](CCCNC(=N)N)C(=O)N[C@@H](CCCCN)C(=O)N[C@@H](CCCCN)C(=O)N[C@@H](CCCNC(=N)N)C(=O)N[C@@H](CCCNC(=N)N)C(=O)N[C@@H](CCC(N)=O)C(=O)N[C@@H](CCCNC(=N)N)C(=O)N[C@@H](CCCNC(=N)N)C(=O)N[C@@H](CCCNC(=N)N)C(N)=O)C(C)C)C(C)C` [MKI-TAT] (Ac-GFPLKRHDGVDDLSKVGGYGRKKRRQRRR-NH2) was tested. Which “motor behavioral defects (time in zones, average velocity, rearing time, session time, zone entry)” value [1] did it give?
**A.** rescued

**Q.** What about the “Phospho-tau recognized by the PHF-1 antibody in brain” value [2] of the same compound?
**A.** reduced

**Q.** And the “level of MARK4-mediated tau phosphorylation recognized by the pS262-tau antibody in brain” value [2]?
**A.** significantly reduced

**Q.** And the “total tau level in brain” value [2]?
**A.** largely unchanged

**Q.** And the “MARK4-mediated tau phosphorylation in vitro” value [3]?
**A.** inhibited

Reference: patent US20160030510A1, “METHODS OF TREATING ALZHEIMER'S DISEASE AND OTHER TAUOPATHIES WITH INHIBITORS OF MICROTUBULE AFFINITY REGULATING KINASE” (The Board of Trustees of the Leland Stanford Junior …, priority 2012, published 2016)
